target: DNA-dependent protein kinase catalytic subunit (Homo sapiens, UniProt P78527); assay: DNA-PK Enzyme-Linked Immunosorbent Assay
Method: On day one, coat 96-well plate (ThermoFisher. Cat #: 442404) with GST-p53 (1-101) peptide (purified by Pharmaron, BCS department) by diluting 3 μg of GST-p53 each well with 0.1 M Na2CO3/NaHCO3, pH 9.6. Incubate the plate overnight at 4° C. The second day, remove coating buffer, wash 2× with PBST (1×PBS containing 0.1% Tween-20). Then add DNA-PK enzyme solution (Invitrogen, #PR9107A; the final DNA-PK concentration is 0.1 μg/mL), series dilution compounds (the final top concentration is 100 nM, 3 fold series dilution, with total 10 doses) and ATP solution (the final ATP concentration is 20 μM) to the 96-well plate. Incubate the plate at 25° C. for 1 hour. Then wash 3× with PBST (1×PBS containing 0.1% Tween-20). Block the plate with PBST+ 1% BSA at 4° C. overnight. The third day, wash 4× with PBST (1×PBS containing 0.1% Tween-20). Then add Phospho-p53 primary antibody (cell signaling Technology, #9286, Phospho-p53 (Ser15) (16G8) Mouse mAb) (1/1000) to each well. Seal with plate and incubate the plate for 1 h at 37° C. Wash 4× with PBST (1×PBS containing 0.1% Tween-20), add 100 μL of HRP-linked secondary antibody (Cell signaling Technology, #7076, Anti-mouse IgG, HRP-linked Antibody) (1/1000) to each well. Seal with tape and incubate the plate for 30 min at 37° C. Wash 4× with PBST (1×PBS containing 0.1% Tween-20), add 100 μL of TMB (Cell signaling Technology, #7004) substrate to each well. Seal with tape and incubate the plate for 10 min at 37° C. Then add 100 μL of Stop solution (Cell signaling Technology, #7002) to each well. Read the plate at 450 nm to detect absorption.

DNA-dependent protein kinase catalytic subunit, sequence (P78527 whole entry): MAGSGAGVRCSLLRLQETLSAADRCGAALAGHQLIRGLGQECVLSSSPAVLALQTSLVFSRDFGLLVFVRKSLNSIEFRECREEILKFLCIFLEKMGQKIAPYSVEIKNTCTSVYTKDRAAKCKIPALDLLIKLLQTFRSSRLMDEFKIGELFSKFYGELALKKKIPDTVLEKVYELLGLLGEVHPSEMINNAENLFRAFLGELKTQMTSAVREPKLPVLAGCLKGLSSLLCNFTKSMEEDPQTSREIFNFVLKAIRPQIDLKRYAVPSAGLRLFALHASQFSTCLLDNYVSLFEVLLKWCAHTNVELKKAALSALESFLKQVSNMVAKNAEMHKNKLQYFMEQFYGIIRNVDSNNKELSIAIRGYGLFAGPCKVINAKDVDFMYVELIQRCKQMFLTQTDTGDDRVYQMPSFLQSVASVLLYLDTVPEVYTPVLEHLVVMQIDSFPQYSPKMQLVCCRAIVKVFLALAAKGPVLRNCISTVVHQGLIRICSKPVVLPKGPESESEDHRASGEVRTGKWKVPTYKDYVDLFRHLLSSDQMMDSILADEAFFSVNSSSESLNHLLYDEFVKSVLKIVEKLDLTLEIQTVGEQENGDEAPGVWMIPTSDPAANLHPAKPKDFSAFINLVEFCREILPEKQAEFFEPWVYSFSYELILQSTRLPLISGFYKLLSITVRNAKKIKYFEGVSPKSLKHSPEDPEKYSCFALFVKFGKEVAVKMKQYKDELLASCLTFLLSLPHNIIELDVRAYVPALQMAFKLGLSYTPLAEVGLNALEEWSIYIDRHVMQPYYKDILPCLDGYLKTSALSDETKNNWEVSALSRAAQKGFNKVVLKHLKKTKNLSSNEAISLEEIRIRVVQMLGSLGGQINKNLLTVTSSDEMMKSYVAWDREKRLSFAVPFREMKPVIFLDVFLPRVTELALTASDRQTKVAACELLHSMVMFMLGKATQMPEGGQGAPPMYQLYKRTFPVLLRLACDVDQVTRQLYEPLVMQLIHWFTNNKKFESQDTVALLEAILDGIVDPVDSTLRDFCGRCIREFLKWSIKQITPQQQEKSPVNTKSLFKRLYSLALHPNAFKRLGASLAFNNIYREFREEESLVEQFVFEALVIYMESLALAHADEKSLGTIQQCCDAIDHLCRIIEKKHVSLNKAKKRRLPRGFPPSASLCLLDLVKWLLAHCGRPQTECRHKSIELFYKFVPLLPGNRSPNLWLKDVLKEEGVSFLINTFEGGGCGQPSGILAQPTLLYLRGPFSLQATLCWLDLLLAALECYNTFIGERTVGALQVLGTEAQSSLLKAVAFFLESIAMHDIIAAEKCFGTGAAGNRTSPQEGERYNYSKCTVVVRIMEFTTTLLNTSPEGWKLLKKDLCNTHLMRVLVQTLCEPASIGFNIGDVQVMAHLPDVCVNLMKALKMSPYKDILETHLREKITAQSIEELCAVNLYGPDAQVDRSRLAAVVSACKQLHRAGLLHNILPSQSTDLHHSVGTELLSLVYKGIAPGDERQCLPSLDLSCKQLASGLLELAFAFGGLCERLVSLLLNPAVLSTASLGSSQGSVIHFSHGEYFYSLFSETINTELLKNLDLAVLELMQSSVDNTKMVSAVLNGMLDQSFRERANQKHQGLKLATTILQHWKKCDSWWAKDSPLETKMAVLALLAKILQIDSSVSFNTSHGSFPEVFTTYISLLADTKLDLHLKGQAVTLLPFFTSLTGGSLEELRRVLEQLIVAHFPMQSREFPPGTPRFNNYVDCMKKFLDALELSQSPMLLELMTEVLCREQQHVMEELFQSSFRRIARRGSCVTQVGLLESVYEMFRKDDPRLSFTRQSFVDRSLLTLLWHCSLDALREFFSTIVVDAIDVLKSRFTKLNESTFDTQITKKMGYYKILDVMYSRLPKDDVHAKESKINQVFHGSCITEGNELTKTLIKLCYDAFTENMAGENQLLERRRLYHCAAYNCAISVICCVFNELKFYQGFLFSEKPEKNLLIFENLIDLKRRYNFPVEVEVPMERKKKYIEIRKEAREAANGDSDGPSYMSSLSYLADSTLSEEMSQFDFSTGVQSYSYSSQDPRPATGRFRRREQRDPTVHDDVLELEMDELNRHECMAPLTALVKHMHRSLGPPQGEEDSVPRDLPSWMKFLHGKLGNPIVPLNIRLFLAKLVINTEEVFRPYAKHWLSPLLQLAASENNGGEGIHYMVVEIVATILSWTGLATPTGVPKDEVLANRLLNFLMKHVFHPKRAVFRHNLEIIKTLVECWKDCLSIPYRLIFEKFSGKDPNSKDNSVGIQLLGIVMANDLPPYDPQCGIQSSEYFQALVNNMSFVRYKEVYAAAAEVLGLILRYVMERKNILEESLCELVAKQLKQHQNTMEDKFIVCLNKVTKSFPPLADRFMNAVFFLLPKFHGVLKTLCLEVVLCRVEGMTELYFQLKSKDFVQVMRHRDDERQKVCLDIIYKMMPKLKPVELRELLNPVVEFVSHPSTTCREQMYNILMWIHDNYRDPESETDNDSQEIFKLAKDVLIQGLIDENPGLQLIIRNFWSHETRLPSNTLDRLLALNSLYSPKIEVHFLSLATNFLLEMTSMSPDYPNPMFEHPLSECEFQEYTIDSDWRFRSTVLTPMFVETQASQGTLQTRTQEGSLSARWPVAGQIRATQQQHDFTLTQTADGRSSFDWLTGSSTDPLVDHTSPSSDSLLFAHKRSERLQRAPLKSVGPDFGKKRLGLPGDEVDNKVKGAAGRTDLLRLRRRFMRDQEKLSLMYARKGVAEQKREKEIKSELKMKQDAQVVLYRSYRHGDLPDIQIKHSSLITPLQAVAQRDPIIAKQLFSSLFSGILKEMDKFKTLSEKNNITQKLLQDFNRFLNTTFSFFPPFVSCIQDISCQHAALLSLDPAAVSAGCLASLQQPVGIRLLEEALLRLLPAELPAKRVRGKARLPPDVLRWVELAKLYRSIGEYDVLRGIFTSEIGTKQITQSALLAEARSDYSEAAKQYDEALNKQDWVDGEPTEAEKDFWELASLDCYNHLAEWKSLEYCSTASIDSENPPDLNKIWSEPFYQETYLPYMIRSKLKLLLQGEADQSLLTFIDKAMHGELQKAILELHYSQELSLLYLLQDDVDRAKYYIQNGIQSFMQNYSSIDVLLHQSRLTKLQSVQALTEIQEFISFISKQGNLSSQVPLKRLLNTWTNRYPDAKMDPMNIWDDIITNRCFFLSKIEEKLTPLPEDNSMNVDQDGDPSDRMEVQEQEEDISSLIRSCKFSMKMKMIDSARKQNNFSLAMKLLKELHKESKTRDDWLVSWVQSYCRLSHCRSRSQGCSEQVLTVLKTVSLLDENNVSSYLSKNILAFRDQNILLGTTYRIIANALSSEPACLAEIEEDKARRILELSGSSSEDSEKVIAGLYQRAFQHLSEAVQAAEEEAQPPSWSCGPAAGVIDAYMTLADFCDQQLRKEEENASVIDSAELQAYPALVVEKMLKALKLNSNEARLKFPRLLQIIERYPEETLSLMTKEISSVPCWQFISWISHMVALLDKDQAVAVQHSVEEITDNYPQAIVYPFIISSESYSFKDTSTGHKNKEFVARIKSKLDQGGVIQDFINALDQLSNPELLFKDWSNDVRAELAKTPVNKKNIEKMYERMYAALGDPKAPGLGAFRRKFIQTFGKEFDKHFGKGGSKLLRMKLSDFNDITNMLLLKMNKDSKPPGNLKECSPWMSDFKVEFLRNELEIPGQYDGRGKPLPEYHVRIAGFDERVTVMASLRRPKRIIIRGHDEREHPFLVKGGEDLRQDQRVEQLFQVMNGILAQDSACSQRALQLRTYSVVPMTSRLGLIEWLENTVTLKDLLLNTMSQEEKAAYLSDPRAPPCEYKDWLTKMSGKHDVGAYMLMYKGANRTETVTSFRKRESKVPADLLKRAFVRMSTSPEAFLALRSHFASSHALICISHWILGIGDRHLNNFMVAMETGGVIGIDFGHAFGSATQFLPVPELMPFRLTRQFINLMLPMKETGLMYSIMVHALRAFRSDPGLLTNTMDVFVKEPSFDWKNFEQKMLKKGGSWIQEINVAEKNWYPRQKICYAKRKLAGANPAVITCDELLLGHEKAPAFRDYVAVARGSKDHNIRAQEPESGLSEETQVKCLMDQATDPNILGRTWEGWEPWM

| Compound | IC50 [nM] |
| --- | --- |
| CN(C)CCCOc1ncc(-c2ccc3ncc4c(c3c2)C2(CC2)C(=O)N4C)cc1NS(=O)(=O)c1cccnc1 [US12187742, Example 85] | < 0.5 |
| CN(C)CCCOc1ncc(-c2ccc3ncc4c(c3c2)C2(CC2)C(=O)N4C)cc1NS(=O)(=O)c1ccc(C(F)(F)F)cc1 [US12187742, Example 108] | < 0.5 |
| CC(C)NCCOc1ncc(-c2ccc3ncc4c(c3c2F)C2(CCC2)C(=O)N4C)cc1NS(C)(=O)=O [US12187742, Example 556] | < 0.5 |

Second part, the molecule after the results:

| IC50 [nM] | Compound |
| --- | --- |
| < 0.5 | COc1ncc(-c2ccc3ncc4c(c3c2)C2(CC2)C(=O)N4C)cc1NS(=O)(=O)c1cccc(C(C)O)c1 (configuration not stated) [US12187742, Example 18] |
| < 0.5 | CN1C(=O)C2(CC2)c2c1cnc1ccc(-c3cnc(OCCCN4CCCC4)c(NS(=O)(=O)C4CC4)c3)cc21 [US12187742, Example 60] |
| < 0.5 | CN(C)CCCOc1ncc(-c2ccc3ncc4c(c3c2)C2(CC2)C(=O)N4C)cc1NS(=O)(=O)c1cccs1 [US12187742, Example 120] |
| < 0.5 | CN1CC=C(c2ncc(-c3ccc4ncc5c(c4c3)C3(CCC3)C(=O)N5C)cc2NS(C)(=O)=O)CC1 [US12187742, Example 276] |
